The source of these data is patent US11001872B2, “Designing customized protein-specific buffer system” (priority 2015, dated 2021).

Data set [1] concerns protein sample. Put plainly: Cryoprotection protein melting point temperature screen. Format: physicochemical. The protocol:
For example, a protein melting point temperature screen was performed using sucrose at several different concentrations. […] See, FIG. 10. […] See, FIG. 11. […] See, FIG. 12.
Conversely, the present method can also identify compounds that might not be expected to provide quality cryoprotectant effects. For example, glycerol is widely accepted to provide cryoprotection. […] See, FIG. 13. […] This is opposite to what one would expect for an indicative parameter to identify a quality cryoprotectant. […] Although it is not necessary to understand the mechanism of an invention, it is believed that the use of such an improved cryoprotectant improves stability for nearly two years. […] See, FIG. 14.

Data set [2] has as its system protein sample. Put plainly: Protein stability screen: protein melting point temperature in MES/BTP buffer mixture. Format: physicochemical. An excerpt: In one embodiment, the present invention contemplates a method comprising a physiologic buffer mixture having a temperature-stable pKa to identify test compounds that increase stability of a sample protein by performing a protein melting point temperature screen. […] Although it is not necessary to understand the mechanism of an invention it is believed that a protein stability screen acts to define the bulk properties of a solution system (i.e. impact of pH, ionic strength, buffer etc.) and not just one specific component like most of the other screening conditions. The buffer system also acts as an internal control that simultaneously compares new and old conditions under identical conditions. Although commonly used previously, a urea stability test provides validation and verification of all testing parameters by comparative analysis with historical literature. DMSO screening allows for the nomination of conditions where protein compounds are usually insoluble (e.g., for example, drug binding studies) to identify the proper use of DMSO to solubilize these compounds without effecting the performance of the intended assay.
See, FIG. 1. […] See, FIG. 3. […] See, FIG. 4. […] See, FIG. 5. […] See, FIG. 6.
A metal ion screen was performed that compared the relative effects of five (5) different metal chloride ions, each at two different concentrations. See, FIG. 7. […] See, FIG. 8.
In one embodiment, the kit instructions comprise the following steps: • i) pre-chill the RT-PCR plate at 4° C. for 15-30 minutes prior to the addition of reagents and/or protein sample to each of the wells. • ii) The dye vial and kit plates should be stored at −20° C. and away from light until the time of use. • iii) Add 5 μl of dye to 500 μl of protein sample. The dye to protein ratio can be modified to any particular protein. For example, smaller proteins or proteins with a small hydrophobic core may require an increased dye concentration. • iv) Transfer 5 μl of each solution from the well plate to a corresponding well of the RT-PCR plate. • v) Add 5 μl of the protein/dye mixture to each well of the RT-PCR plate (>0.5 mg/ml). • vi) Mix the solutions by pipetting up and down (˜5 times). • a) gently placing all solutions at the bottom of the avoids subsequent plate centrifugation. • vii) Seal the RT-PCR plate. • viii) Immediately load the TR-PCR plate into the instrument and begin the programmed heating schedule (approximate timeframe=62 minutes), for example: • a) Heat to 20 C • b) Ramp to 90 C in 0.5 C increments. • c) Ramp to 4 C with a two minute schedule. • ix) Upload stored data file to a designated website (e.g., for example, caymanchem.com/deltatm) and follow the instructions.

The target in data set [3] is T1, Dwarf27 protein (Oryza sativa subsp. japonica, UniProt C7AU21).
T1 sequence (C7AU21 41-278): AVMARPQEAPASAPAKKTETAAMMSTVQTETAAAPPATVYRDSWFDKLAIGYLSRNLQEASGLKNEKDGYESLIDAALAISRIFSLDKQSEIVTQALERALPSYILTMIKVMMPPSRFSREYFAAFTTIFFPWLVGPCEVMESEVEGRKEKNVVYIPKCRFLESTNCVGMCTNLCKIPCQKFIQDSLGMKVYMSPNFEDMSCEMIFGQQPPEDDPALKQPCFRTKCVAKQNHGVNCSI
Description: Dwarf27 protein stability screen in MES-BTP buffer mixture (melting point temperature). Format: physicochemical. Particulars: for concentration for customized buffer system for Dwarf27: MES-BTP, Spyro Orange; for effect on protein Tm as compared to the control Tm: Dwarf27 (D27), concentration screen, FIG. 16. An excerpt: Many methods have been used to describe protein stability. A primary method of early literature was the urea degradation study. As a point of comparative reference to this early literature, the present invention maintains a concentration dependent measure of protein stability relative to urea concentration. […] See, FIG. 16A. […] See, FIG. 16B.
See, FIG. 17A. In one embodiment, the present invention contemplates a multi-component single buffer mixture characterized by: i) a low delta specific heat (CP); ii) low buffer-buffer interactions; iii) low divalent cation chelation; and iv) buffering capacity over a wide pH range. In one embodiment, the multi-component single buffer mixture comprises MES and BTP. See, FIG. 17B. […] The optimal pH for Dwarf27 protein was determined by other methods to be pH 7.5 (data not shown).
Data was collected using a Spyro Orange fluorophore.
The integrated analysis compared the differences in inflection points of these protein melting temperature point screens to identify Dwarf27 protein melting point profiles. See, FIG. 19.

For data set [4] the following is noted: Kipp et al., cited from earlier work; for ΔpH=pH(60° C.)−pH(25° C.): 0.1 M, initial pH=7 (25° C.), PHTEMP simulation.
The subject of data set [5] is Tryptophan hydroxylase (TH). Particulars: cited from earlier work; for effect of buffer on TH stability: tested at same pH and salt concentration; for effect on TH melting temperature: buffer of 20 mM HEPES/NaOH and 100 mM (NH4)2SO4 (pH 7.0).
The mark [6] stands for this setting: Hoefmeister Series screen, higher Tm.
Setting [7] is: cryoprotection screen, dose response.

Read-outs that look alike come from different tables or passages of the source.

`OC[C@H]1O[C@H](O[C@H]2O[C@H](CO)[C@@H](O)[C@H](O)[C@H]2O)[C@H](O)[C@@H](O)[C@@H]1O` [trehalose]: the “increase in protein melting temperature relative to sucrose” value in data set [1] (cryoprotection screen) is reported as “more pronounced than sucrose”. For `[I-].[Na+]` [sodium iodide], the “effect on protein stability (Tm)” value in data set [2] (setting [6]) is listed as “improved the stability of the protein”. For `O=P([O-])([O-])O.[Na+].[Na+]` [sodium phosphate dibasic], the “effect on protein stability (Tm)” value in data set [2] (setting [6]) is “improved the stability of the protein”. Besides, the “concentration for customized buffer system for Dwarf27” value (from here on “concentration”) in data set [3] was 50 mM. Regarding `[Cl][Co][Cl]` [cobalt chloride], in data set [3], the “concentration” value lay in the range of 0.005 to 0.025 mM. For `OC[C@@H](O)[C@H](O)[C@@H](O)CO` [xylitol], in data set [1] (e.g. 30%), the “effect on protein melting temperature in comparison to sucrose or trehalose” value is listed as “raised the protein melting temperature a full degree”.

For the compound `CC(=O)[O-].O.O.O.[Na+]` [sodium acetate trihydrate], the “effect on protein stability (Tm)” value in data set [2] is “improved the stability of the protein”. As to `N#C[S-].[Na+]` [sodium thiocynate], the “effect on protein stability (Tm)” value in data set [2] (setting [6]) was “improved the stability of the protein”.

With `CC(=O)O` [acetic acid], in data set [4], the “ΔpH=pH(60° C.)−pH(25° C.)” value is “approximately 0” and the “ΔH zero (enthalpy of acid dissociation)” value is -0.1 kcal/mol. As to `O=S(=O)(O)O` [sulfuric acid], in data set [4], the “ΔpH=pH(60° C.)−pH(25° C.)” value is given as “approximately −0.4”, the “ΔH zero 1” value is -12 kcal/mol and the “ΔH zero 2” value is -5.4 kcal/mol.

Consider `O=C([O-])C(O)C(O)C(=O)[O-].[Na+].[Na+]` (stereo not drawn) [sodium tartrate dibasic], for which, in data set [2] (setting [6]), the “effect on protein stability (Tm)” value was “improved the stability of the protein”. The same measure, in the same setting: under `Cl.N` [ammonium chloride] stands “improved the stability of the protein”. `N.N.O=S(=O)(O)O` [ammonium sulphate]: the “effect on protein Tm as compared to the control Tm” value in data set [3] was “concentration-dependent increase in protein Tm”. `O=S(=O)(O)CCN1CCN(CCO)CC1` [HEPES, 4-(2-hydroxyethyl)-1-piperazine ethanesulfonic acid]: in data set [5], the “effect of buffer on TH stability” value is on record as “no significant effect on stability”.

For the compound `O.O.[Ca+2].[Cl-].[Cl-]` [calcium chloride dihydrate], the “effect on protein stability (Tm)” value in data set [2] was “improved the stability of the protein”.

For the compound `OCC(CO)(CO)NCCCNC(CO)(CO)CO` [Bis Tris Propane], in data set [5], the “effect of buffer on TH stability” value was “no significant effect on stability”. As to `N[C@@H](CCC(=O)O)C(=O)O` [glutamic acid], the “concentration” value in data set [3] was 25 mM. For the compound `O=S(=O)(O)CCCN1CCOCC1` [MOPS, 3-(N-morpholino)propanesulfonic acid], in data set [5], the “effect of buffer on TH stability” value was “no significant effect on stability”. Take `OC[C@H]1O[C@@](CO)(O[C@H]2O[C@H](CO)[C@@H](O)[C@H](O)[C@H]2O)[C@@H](O)[C@@H]1O` [sucrose]: the “effect on protein melting point temperature” value in data set [1] (25% sucrose and 30% sucrose) was “raised the melting point temperature”. Moreover, the “effect on TH melting temperature” value in data set [5] is listed as “increased melting temperature”.

For the compound `NC(N)=O` [urea], the effect on protein entry in data set [2] (MES/BTP, urea concentrations in excess of 1.75 M, no melting point determinable) is on record as “complete protein denaturation”. Besides, the “effect on protein melting point temperature” value in data set [2] (MES/BTP, urea under 0.5 M or between 0.75-1.75 M) is “lower protein melting point temperatures”. For the same compound, the “effect on protein Tm as compared to the control Tm” value in data set [3] is recorded as “generalized decreases in protein Tm”.

`OC[C@@H](O)[C@@H](O)[C@H](O)[C@@H](O)CO` [sorbitol]: the “effect on TH melting temperature” value in data set [5] is on record as “increased melting temperature”. Consider `[Cl-].[Li+]` [lithium chloride], for which, in data set [2] (setting [6]), the “effect on protein stability (Tm)” value is on record as “improved the stability of the protein”.

For `[Cl-].[K+]` [potassium chloride], in data set [2] (setting [6]), the “effect on protein stability (Tm)” value was “improved the stability of the protein”. Turning to `O=S(=O)(O)CCN1CCN(CCS(=O)(=O)O)CC1` [PIPES, piperazine-N,N′-bis(2-ethanesulfonic acid], the “concentration” value in data set [3] came out at 100 mM. For the compound `CCN(CC)CC` [triethylamine], in data set [4], the “ΔpH=pH(60° C.)−pH(25° C.)” value is given as “approximately −0.8” and the “ΔH zero (enthalpy of acid dissociation)” value is 10.4 kcal/mol.

Take `O.O.O.O.O.O.O.O.O.O.O=S(=O)([O-])[O-].[Na+].[Na+]` [sodium sulphate decahydrate]: in data set [2], the “effect on protein stability (Tm)” value is listed as “improved the stability of the protein”. Regarding `C[S+](C)[O-]` [DMSO, dimethyl sulfoxide], in data set [2] (buffer mixture of MES and BTP, concentration screen), the “effect on protein melting point temperature” value is given as “consistently increased protein melting point temperatures”. Besides, the “concentration” value in data set [3] stood at 7%. For `OCC(O)CO` [glycerol], the “effect on protein melting point temperature” value was “raised the protein melting temperature” in data set [2] (MES/BTP, glycerol concentrations above 10%); “lowered the protein melting point temperature” in data set [2] (MES/BTP, glycerol concentrations below 10%); “dose-dependent decrease in protein melting point temperature” in data set [1] (setting [7]). Further, the “effect on TH melting temperature” value in data set [5] is “increased melting temperature”. In data set [3], the “concentration” value was 2.5%.

As for `O=C([O-])CC(O)(CC(=O)[O-])C(=O)[O-].[Na+].[Na+].[Na+]` [sodium citrate tribasic], in data set [2], the “effect on protein stability (Tm)” value is on record as “improved the stability of the protein”. Turning to `[F-].[Na+]` [sodium fluoride], in data set [2] (setting [6]), the “effect on protein stability (Tm)” value is on record as “improved the stability of the protein”. Still for that read-out and setting: then `O=[N+]([O-])[O-].[Na+]` [sodium nitrate], with “improved the stability of the protein”. As to `OCCO` [ethylene glycol], the “effect on protein melting point temperature” value in data set [1] (setting [7]) is reported as “dose-dependent decrease in protein melting point temperatures”.

Consider `Cl.N=C(N)N` [guanidinium hydrochloride], for which the “effect on protein stability (Tm)” value in data set [2] (setting [6]) is given as “improved the stability of the protein”.
